Results taken from ChEMBL document CHEMBL1201862, “PubChem BioAssay data set” (2004).
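Values below derive from 48-hour exposures of cells grown in 96-well plates, with endpoints linearly interpolated between the two concentrations bracketing the appropriate inhibition level. At the GI50, growth is halved.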 The source made the active and inactive calls. Rule as the data show it: active = GI50 up to about 1.1 µM and inactive = higher.

Assays:
Assay in all cases: NCI-60 cell line screen, 48 h
HT-29 = test system: HT-29
SW-620 = test system: SW-620
UACC-257 = test system: UACC-257
UACC-62 = test system: UACC-62
UO-31 = test system: UO-31
SF-268 = test system: SF-268
KM12 = test system: KM12
K562 = test system: K562
HL-60 = test system: HL-60
A549 = test system: A549
Malme-3M = test system: Malme-3M
SNB-75 = test system: SNB-75
OVCAR-5 = test system: OVCAR-5
RPMI-8226 = test system: RPMI-8226
OVCAR-4 = test system: OVCAR-4
HCC 2998 = test system: HCC 2998
OVCAR-8 = test system: OVCAR-8
SK-MEL-2 = test system: SK-MEL-2
M14 = test system: M14
TK-10 = test system: TK-10

Row | SMILES | GI50 (HT-29) | GI50 (SW-620) | GI50 (UACC-257) | GI50 (UACC-62) | GI50 (UO-31) | GI50 (SF-268) | GI50 (KM12) | GI50 (K562) | GI50 (HL-60) | GI50 (A549) | GI50 (Malme-3M) | GI50 (SNB-75) | GI50 (OVCAR-5) | GI50 (RPMI-8226) | GI50 (OVCAR-4) | GI50 (HCC 2998) | GI50 (OVCAR-8) | GI50 (SK-MEL-2) | GI50 (M14) | GI50 (TK-10)
1 | O=P1(c2ccccc2)Nc2ccccc2SSc2ccccc2N1 | 19.2 µM (inactive) | 16.7 µM (inactive) | 15.8 µM (inactive) | 15.6 µM (inactive) | 14.1 µM (inactive) | 17.5 µM (inactive) | 16.7 µM (inactive) | 18.2 µM (inactive) | 13.8 µM (inactive) | 19.6 µM (inactive) | 18.4 µM (inactive) | 20.4 µM (inactive) | 21.2 µM (inactive) | 18.3 µM (inactive) | 18.6 µM (inactive) | 20.7 µM (inactive) | 18.2 µM (inactive) | 16.7 µM (inactive) |  | 
2 | NNC(=O)CCc1ccc2ccc3ccccc3c2c1 | > 100 µM (inactive) | > 100 µM (inactive) | > 100 µM (inactive) | > 100 µM (inactive) | 18.8 µM (inactive) | 62.2 µM (inactive) | > 100 µM (inactive) | > 100 µM (inactive) | 0.312 µM (active) |  | 79.1 µM (inactive) |  | > 100 µM (inactive) | 72.1 µM (inactive) | 74.6 µM (inactive) | > 100 µM (inactive) | > 100 µM (inactive) | > 100 µM (inactive) | 71.8 µM (inactive) | > 100 µM (inactive)
3 | COC(=O)C1=C(C)N2CCOC2(C)C(C(=O)OC)C1c1ccc[nH]1 (stereo not given) | > 100 µM (inactive) | > 100 µM (inactive) | > 100 µM (inactive) | > 100 µM (inactive) | > 100 µM (inactive) | > 100 µM (inactive) | > 100 µM (inactive) | > 100 µM (inactive) | > 100 µM (inactive) | > 100 µM (inactive) |  | 18.7 µM (inactive) |  | > 100 µM (inactive) | > 100 µM (inactive) | > 100 µM (inactive) | > 100 µM (inactive) | > 100 µM (inactive) | > 100 µM (inactive) | > 100 µM (inactive)
4 | Cc1cc(C)cc(Sc2c([N+](=O)[O-])ncn2C)c1 | 16.2 µM (inactive) | 14 µM (inactive) | 14.2 µM (inactive) | 15.5 µM (inactive) | 13.7 µM (inactive) | 14.9 µM (inactive) | 18.9 µM (inactive) | 11.2 µM (inactive) |  | 26.6 µM (inactive) | 7.28 µM (inactive) | 21.3 µM (inactive) | 16.9 µM (inactive) | 9.98 µM (inactive) | 15.4 µM (inactive) | 25 µM (inactive) | 12.8 µM (inactive) | 10.6 µM (inactive) | 14 µM (inactive) | 23 µM (inactive)
5 | C=CCC(O[Si](C)(C)C(C)(C)C)c1cc(O[Si](C)(C)C(C)(C)C)ccc1OC (stereo not given) | > 100 µM (inactive) | > 100 µM (inactive) | > 79.4 µM (inactive) | > 81.3 µM (inactive) | > 82 µM (inactive) | > 85.9 µM (inactive) | > 100 µM (inactive) | > 100 µM (inactive) | > 100 µM (inactive) | > 64.1 µM (inactive) | > 100 µM (inactive) | > 55.6 µM (inactive) | > 100 µM (inactive) | > 100 µM (inactive) | > 67.3 µM (inactive) | > 100 µM (inactive) | > 81.3 µM (inactive) | > 75.5 µM (inactive) |  | 
6 | COC(=O)c1ccccc1/N=C(/NC1CCCCCC1)NS(=O)(=O)c1ccc(C)cc1 | > 100 µM (inactive) | > 100 µM (inactive) | > 100 µM (inactive) | > 100 µM (inactive) | > 100 µM (inactive) | > 100 µM (inactive) | > 100 µM (inactive) | > 100 µM (inactive) | 96.2 µM (inactive) | > 100 µM (inactive) |  | > 100 µM (inactive) | > 100 µM (inactive) | > 100 µM (inactive) | > 100 µM (inactive) | > 100 µM (inactive) | > 100 µM (inactive) | > 100 µM (inactive) | > 100 µM (inactive) | > 100 µM (inactive)
